One may read the Ki as the equilibrium dissociation constant of an inhibitor or competing ligand from its target. By IC50 is commonly meant the point on the concentration scale where inhibition reaches its midpoint. One may read the bioavailability as the share of a dose that reaches the circulation, judged against a reference dose that is usually intravenous. As a reminder, the ED50 is the dose that gives a 50% effect, or the effect in half of the subjects. What is called Kd is a measure of binding affinity in units of concentration.

The subject of series [1] is Mus musculus. The experiment in a line: Reduction of fat mass in diet-induced obese mouse at 30 mg/kg, po for 24 days relative to control. It is filed as functional. On the set-up: scale not given: the % may be the effect or the level left.
Series [2] concerns the target T1, Mitogen-activated protein kinase 8 (Homo sapiens, UniProt P45983). The experiment in a line: Inhibition of JNK1.
Series [3] addresses Mitogen-activated protein kinase 9 (Homo sapiens, UniProt P45984). The series is described as follows: Inhibition of JNK2.
The test system of series [4] is Mus musculus. The experiment in a line: Reduction of body weight in diet-induced obese mouse at 30 mg/kg, po for 24 days. It is filed as functional. On the set-up: scale not given: the % may be the effect or the level left.
Series [5] has as its target Mitogen-activated protein kinase 10 (Homo sapiens, UniProt P53779). The experiment in a line: Inhibition of JNK3.
The target in series [6] is Mitogen-activated protein kinase 14 (Homo sapiens, UniProt Q16539). The series is described as follows: Inhibition of p38alpha.
Sequence of Mitogen-activated protein kinase 14 (Q16539 whole entry): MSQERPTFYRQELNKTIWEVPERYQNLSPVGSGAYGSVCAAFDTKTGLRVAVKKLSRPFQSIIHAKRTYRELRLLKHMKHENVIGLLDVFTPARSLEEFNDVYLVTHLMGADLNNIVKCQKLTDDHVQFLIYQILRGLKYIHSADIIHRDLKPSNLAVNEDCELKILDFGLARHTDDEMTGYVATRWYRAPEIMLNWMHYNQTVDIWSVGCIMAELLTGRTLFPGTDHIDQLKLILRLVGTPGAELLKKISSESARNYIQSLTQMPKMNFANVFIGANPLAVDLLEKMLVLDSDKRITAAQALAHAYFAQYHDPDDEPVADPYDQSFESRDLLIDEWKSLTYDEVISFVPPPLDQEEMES
The nature of series [7]: Oral bioavailability in rat. The class given is ADME, organism-based. The settings on record: in vivo.
The species named for series [8] is Mus musculus. The experiment in a line: Inhibition of LPS-induced TNFalpha production in mouse. It is filed as functional.
The test system of a further series is SCG. The experiment in a line: Protection against NGF deprivation-induced neuronal apoptosis in rat SCG cells after 24 hrs by MTT assay. It is filed as functional, cell-based.
Series [9] addresses T1, Mitogen-activated protein kinase 8. The experiment in a line: Binding affinity to JNK1.

T1 sequence (P45983 whole entry): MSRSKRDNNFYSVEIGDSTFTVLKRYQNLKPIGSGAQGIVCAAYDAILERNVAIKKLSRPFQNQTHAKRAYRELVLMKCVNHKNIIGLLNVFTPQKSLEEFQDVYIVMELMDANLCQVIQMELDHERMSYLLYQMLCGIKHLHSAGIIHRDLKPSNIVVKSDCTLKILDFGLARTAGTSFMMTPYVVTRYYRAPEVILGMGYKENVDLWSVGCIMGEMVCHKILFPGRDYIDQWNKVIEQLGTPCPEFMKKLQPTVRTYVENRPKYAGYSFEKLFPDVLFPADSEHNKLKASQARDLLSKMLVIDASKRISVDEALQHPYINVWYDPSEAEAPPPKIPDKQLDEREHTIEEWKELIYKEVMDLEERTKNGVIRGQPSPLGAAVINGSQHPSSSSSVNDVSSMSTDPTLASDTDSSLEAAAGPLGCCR
Sequence of Mitogen-activated protein kinase 10 (P53779 whole entry): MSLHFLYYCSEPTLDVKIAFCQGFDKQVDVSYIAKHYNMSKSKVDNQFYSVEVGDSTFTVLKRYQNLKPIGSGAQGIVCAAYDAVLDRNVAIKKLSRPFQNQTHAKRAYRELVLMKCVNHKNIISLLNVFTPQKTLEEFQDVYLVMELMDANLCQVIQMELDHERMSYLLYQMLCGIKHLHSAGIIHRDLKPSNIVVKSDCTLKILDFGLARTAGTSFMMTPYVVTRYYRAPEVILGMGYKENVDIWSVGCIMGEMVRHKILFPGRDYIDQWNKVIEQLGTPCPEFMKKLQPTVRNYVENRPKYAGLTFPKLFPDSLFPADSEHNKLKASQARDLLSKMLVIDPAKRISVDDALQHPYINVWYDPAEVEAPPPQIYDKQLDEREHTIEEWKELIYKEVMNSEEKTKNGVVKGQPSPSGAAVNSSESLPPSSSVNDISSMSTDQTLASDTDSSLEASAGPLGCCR
Sequence of Mitogen-activated protein kinase 9 (P45984 whole entry): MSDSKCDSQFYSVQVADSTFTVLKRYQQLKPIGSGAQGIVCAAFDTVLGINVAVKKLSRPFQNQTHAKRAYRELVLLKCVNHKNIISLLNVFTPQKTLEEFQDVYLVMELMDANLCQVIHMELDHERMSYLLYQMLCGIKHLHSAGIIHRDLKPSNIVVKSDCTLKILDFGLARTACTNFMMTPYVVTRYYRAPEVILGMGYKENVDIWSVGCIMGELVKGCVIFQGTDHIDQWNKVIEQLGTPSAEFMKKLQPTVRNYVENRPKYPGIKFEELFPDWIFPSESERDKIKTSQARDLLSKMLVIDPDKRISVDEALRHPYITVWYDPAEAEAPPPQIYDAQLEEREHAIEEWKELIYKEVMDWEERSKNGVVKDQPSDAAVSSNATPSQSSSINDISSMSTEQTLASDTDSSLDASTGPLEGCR

`O[C@H]1CC[C@H](Nc2nccc(-c3c[nH]nc3C3CCCOC3)n2)CC1` (some centres undefined): the Activity in the series with Mus musculus [1] was found to be 30.1%; in the series with Mus musculus [4], 13%. For the same compound, the Ki in [2] came to 0.009 µM; in series [3], 0.017 µM; in series [5], 0.016 µM.
On to `CN(C)CCCC(=O)Nc1cc(C(=O)O)cc(-c2n[nH]c3cc(Nc4ccccc4Cl)ccc23)c1`, for which the IC50 turned out to be 0.903 µM in [6], 0.101 µM in series [2] and 0.003 µM in series [5].
On to `CCCNc1nccc(-c2c(-c3ccc(F)cc3)nc3n2[C@H](Cc2ccc(OC)cc2)CC3)n1`, for which the IC50 in series [6] was found to be 0.054 µM; in series [5], 0.0109 µM.
Turning to `CN(C)c1c(-c2ccnc(N[C@H]3CC[C@H](O)CC3)n2)cnn1Cc1ccccc1`, the Ki in series [2] was 0.003 µM; in series [3], 0.006 µM; in series [5], 0.005 µM.
The compound `N#C/C(=C1/Nc2ccccc2S1)c1ccnc(NCCc2cccnc2)n1` displayed a bioavailability in [7] of 38%. Moreover, the 50% effect level in the series filed under Mus musculus [8] (ED50) was put at a dose of 3 mg/kg.
In turn, `O=C(NCCCn1cnc(-c2ccc(F)cc2)c1-c1ccncc1)c1ccccc1` returned an IC50 in series [6] of 0.046 µM.
Regarding `c1ccc(Nc2ccc3c(-c4ccccc4)n[nH]c3c2)cc1`, in [2], the IC50 is more than 10 µM.
Take `O=C(NCc1ccc(S(=O)(=O)N2CCC(n3nnc4ccccc43)CC2)s1)c1ccc(Cl)cc1`: the IC50 in the series with SCG came to 1.7 µM.
The compound H-RPKRPTTLNLF-OH displayed a Kd in series [9] of 0.42 µM.

For the origin of these results see ChEMBL document CHEMBL1156270, “Small molecule JNK (c-Jun N-terminal kinase) inhibitors” (J Med Chem, 2010).
